Test results taken from US20140357654A1, “METHODS OF TREATING SCHIZOPHRENIA WITH PHENYLALANINE ENAMIDE DERIVATIVE INHIBITORS OF a4 INTEGRIN POSSESSING A CYCLOBUTENE GROUP” (AESTUS THERAPEUTICS, INC., priority 2011, published 2014).

Tested on: Male Sprague-Dawley rats
Experiment: Reversal of PCP-induced deficit in prepulse inhibition of the acoustic startle response (PPI)
Assay type: in vivo, rat
Conditions: for reversal of PCP-induced deficit in PPI, percent PPI averaged for all three prepulse intensities: average of 69, 73 and 81 dB, FIG. 2; for reversal of PCP-induced deficit in PPI, percent PPI averaged for all three prepulse intensities / reversal of PCP-induced deficit in PPI: 50 mg/kg p.o., adult male rats; for effect on pre-pulse inhibition: 10 and 50 mg/kg p.o. 45 min before PCP 2.5 mg/kg i.p.; for reversal of PCP-induced deficit in PPI: prepulse intensity 73 dB, FIG. 1
Method: Male Sprague-Dawley rats weighing 210-250 g at time of experiment were used. Animals were housed in a temperature and humidity controlled environment and allowed free access to food and water prior to use.
The amplitude of the inherent startle response varies considerably from animal to animal. The gain of the platforms must be calibrated to ensure that the average startle waveform falls within the desired range. To this end, baseline studies were conducted before the full PPI protocol to allow the calibration of the platforms to be fine-tuned to the startle waveform amplitude. This also allows the animals to become acclimatised to the testing equipment prior to drug administration.
Animals were placed in restraining holders and transferred to the designated chamber. Once all holders were securely fastened to the platform, the Baseline protocol was started. This consists of: • Acclimation Period: Animals were exposed to 5 minutes of 65 decibel (dB) background noise (white noise). • Block 1: 10× startle stimulus alone (white noise, 120 dB, 40 ms) • Block 2: 6× startle stimulus alone • 6× pre-pulse plus startle stimulus (pure tone, 16 dB above background noise, • 20 ms) followed 100 ms later by the startle stimulus. • During this time, the amplitude of the startle responses was recorded. On completion of this protocol, the sensitivity of the equipment was re-calibrated where necessary by adjusting the gain settings.
The same group of rats was again subjected to the Baseline protocol described above. Again, on completion of this protocol, the sensitivity of the equipment was re-calibrated where necessary by adjusting the gain settings. […] These animals were then returned to their home cages for subsequent dosing with compound.
The study compounds were suspended from dry powder stocks in Vehicle (5% Tween 80/5% PEG/saline) and sonicated for 60 minutes at 37° C. to generate suspensions suitable for oral dosing. Control rats received Vehicle by oral gavage. PCP was dissolved in sterile saline (0.9% NaCl).
Rats were dosed with either saline (0.9% NaCl) or 2.5 mg/kg PCP by intraperitoneal injection 15 minutes prior to PPI testing.
(2 S)-2-(2-Bromo-3-oxo-spiro[3.5]non-1-en-1-ylamino)-3-[4-([2,7]naphthyridin-1-ylamino)phenyl]proprionic acid or Clozapine was administered orally by gavage 45 minutes before challenge with PCP or saline. (2S)-2-(2-Bromo-3-oxo-spiro[3.5]non-1-en-1-ylamino)-3-[4-([2,7]naphthyridin-1-ylamino)phenyl]proprionic acid was administered at 10 mg/kg and 50 mg/kg. Clozapine was administered at 5 mg/kg. Vehicle control rats received Vehicle (5% Tween 80/5% PEG/saline) by oral gavage 45 minutes before challenge with PCP or saline.
Exactly 15 minutes after the injection of PCP or saline, the full PPI protocol was started. Animals were exposed to 5 minutes of 65 dB background noise (white noise) as an acclimation period, before the acoustic stimuli began. • Block 1: 6× startle stimulus alone (white noise, 120 dB, 40 ms) • Block 2: 14× startle stimulus • 8× no pulse • 30× pre-pulse (10 each of 4, 8, and 16 dB above the background noise) followed 100 ms later by the startle stimulus. This corresponds to intensities of 69, 73 and 81 dB, respectively. A total of 52 trials were presented to the animals in this block in a pseudo-random order with a variable interval of 8 to 23 seconds, averaging 15 s between trials). • Block 3: 6× startle stimulus alone
Pre-pulse inhibition was calculated from trials in Block 2 by the following formula:
% PPI=(100×[(pulse alone score)−(prepulse+pulse score)]/pulse alone

SMILES: O=C(O)[C@H](Cc1ccc(Nc2nccc3ccncc23)cc1)NC1=C(Br)C(=O)C12CCCCC2 [(2S)-2-(2-Bromo-3-oxo-spiro[3.5]non-1-en-1-ylamino)-3-[4-([2,7]naphthyridin-1-ylamino)phenyl]proprionic acid]
- reversal of PCP-induced deficit in PPI, percent PPI averaged for all three prepulse intensities (50 mg/kg): reversal
- reversal of PCP-induced deficit in PPI, percent PPI averaged for all three prepulse intensities (listed as MGCD-0103, 50 mg/kg): significantly (p<0.05) reversed
- effect on pre-pulse inhibition (prepulse intensity 69 dB (4 dB above background), rats): did not have a statistically significant effect
- ability to attenuate the PCP-induced deficit in PPI (prepulse intensity 73 dB (8 dB above background), dose not specified (10 and 50 mg/kg p.o. tested), rats): more evident
- reversal of PCP-induced deficit in PPI (50 mg/kg): reversal
- reversal of PCP-induced deficit in PPI (listed as MGCD-0103, 50 mg/kg): significantly (p<0.05) reversed
- effect on pre-pulse inhibition (prepulse intensity 81 dB (16 dB above background), rats): did not have a statistically significant effect
